Patent publication US10787452B2 (Vertex Pharmaceuticals Incorporated, priority 2012, dated 2020)

Tested on: HCT116 colorectal cancer cells
Test: Cisplatin sensitization assay (96 h cell viability MTS);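 further: compound concentration needed to lower the Cisplatin-alone IC50 by a set fold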
Format: cell-based
Details: 96 h MTS, compound plus Cisplatin
In short: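 HCT116 cells were co-treated with compound and cisplatin, each in 2-fold serial dilutions from a 10 μM top final concentration, as a full matrix. After 96 h at 37 °C, 5% CO2, viability was read by MTS following a 1 h incubation with reagent.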

SMILES | Cisplatin Sensitization Assay
CC(C#N)c1cnc2c(C(=O)Nc3cnccc3N3CCN(C4COC4)CC3)c(N)nn2c1 (stereo not drawn) [I-N-143, 2-amino-6-(1-cyanoethyl)-N-(4-(4-(oxetan-3-yl)piperazin-1-yl)pyridin-3-yl)pyrazolo[1,5-a]pyrimidine-3-carboxamide] | ++ (Compounds with a Cisplatin sensitization value >0.02 μM but <0.2 μM are marked with “++.”)
CS(=O)(=O)c1ccc(-c2ccncc2NC(=O)c2c(N)nn3cc(F)cnc23)cc1 [I-C-61, 2-amino-6-fluoro-N-(4-(4-(methylsulfonyl)phenyl)pyridin-3-yl)pyrazolo[1,5-a]pyrimidine-3-carboxamide] | +++ (Compounds with a Cisplatin sensitization value of <0.02 μM are marked with “+++.”)
Nc1nn2cc(F)cnc2c1C(=O)Nc1cncc(F)c1N1CCC(C(=O)N2CCC(N3CCCCC3)CC2)CC1 [I-G-60, N-(4-(4-([1,4′-bipiperidine]-1′-carbonyl)piperidin-1-yl)-5-fluoropyridin-3-yl)-2-amino-6-fluoropyrazolo[1,5-a]pyrimidine-3-carboxamide] | +++ (Compounds with a Cisplatin sensitization value of <0.02 μM are marked with “+++.”)
C[C@H]1CN(C(=O)C2CCN(c3c(F)cncc3NC(=O)c3c(N)nn4cc(F)cnc34)CC2)CCN1C [I-G-47, (S)-2-amino-N-(4-(4-(3,4-dimethylpiperazine-1-carbonyl)piperidin-1-yl)-5-fluoropyridin-3-yl)-6-fluoropyrazolo[1,5-a]pyrimidine-3-carboxamide] | +++ (Compounds with a Cisplatin sensitization value of <0.02 μM are marked with “+++.”)
CC(C)N1CCN(c2ccncc2NC(=O)c2c(N)nn3cc(F)cnc23)CC1 [I-N-4, 2-amino-6-fluoro-N-(4-(4-isopropylpiperazin-1-yl)pyridin-3-yl)pyrazolo[1,5-a]pyrimidine-3-carboxamide] | +++ (Compounds with a Cisplatin sensitization value of <0.02 μM are marked with “+++.”)
Nc1nn2cc(F)cnc2c1C(=O)Nc1cncc(Cl)c1N1CCNCC1 [I-N-126, 2-amino-N-(5-chloro-4-(piperazin-1-yl)pyridin-3-yl)-6-fluoropyrazolo[1,5-a]pyrimidine-3-carboxamide] | +++ (Compounds with a Cisplatin sensitization value of <0.02 μM are marked with “+++.”)
Nc1nn2cc(Cl)cnc2c1C(=O)Nc1cnccc1OC1CCNCC1 [I-O-80, 2-amino-6-chloro-N-(4-(piperidin-4-yloxy)pyridin-3-yl)pyrazolo[1,5-a]pyrimidine-3-carboxamide] | +++ (Compounds with a Cisplatin sensitization value of <0.02 μM are marked with “+++.”)
Nc1nn2cc(F)cnc2c1C(=O)Nc1cncc(F)c1N1CCN(C2CCOCC2)CC1 [I-N-121, 2-amino-6-fluoro-N-(5-fluoro-4-(4-(tetrahydro-2H-pyran-4-yl)piperazin-1-yl)pyridin-3-yl)pyrazolo[1,5-a]pyrimidine-3-carboxamide] | +++ (Compounds with a Cisplatin sensitization value of <0.02 μM are marked with “+++.”)
Nc1nn2cc(F)cnc2c1C(=O)Nc1cnccc1OC1CN2CCC1CC2 (racemic) [I-O-6, (R,S)-2-amino-6-fluoro-N-(4-(quinuclidin-3-yloxy)pyridin-3-yl)pyrazolo[1,5-a]pyrimidine-3-carboxamide] | +++ (Compounds with a Cisplatin sensitization value of <0.02 μM are marked with “+++.”)
CN1CC2(CCN(c3c(F)cncc3NC(=O)c3c(N)nn4cc(F)cnc34)CC2)OC1=O [I-N-229, 2-amino-6-fluoro-N-(5-fluoro-4-(3-methyl-2-oxo-1-oxa-3,8-diazaspiro[4.5]decan-8-yl)pyridin-3-yl)pyrazolo[1,5-a]pyrimidine-3-carboxamide] | +++ (Compounds with a Cisplatin sensitization value of <0.02 μM are marked with “+++.”)
Nc1nn2cc(F)cnc2c1C(=O)Nc1cncc(F)c1N1CCN(C(=O)C2CNCCO2)CC1 (stereo not drawn) [I-N-172, 2-amino-6-fluoro-N-(5-fluoro-4-(4-(morpholine-2-carbonyl)piperazin-1-yl)pyridin-3-yl)pyrazolo[1,5-a]pyrimidine-3-carboxamide] | +++ (Compounds with a Cisplatin sensitization value of <0.02 μM are marked with “+++.”)
Nc1nn2cc(F)cnc2c1C(=O)Nc1cnccc1N1CCN(C2CCOCC2)CC1 [I-N-11, 2-amino-6-fluoro-N-(4-(4-(tetrahydro-2H-pyran-4-yl)piperazin-1-yl)pyridin-3-yl)pyrazolo[1,5-a]pyrimidine-3-carboxamide] | ++ (Compounds with a Cisplatin sensitization value >0.02 μM but <0.2 μM are marked with “++.”)
CN1CC(C(=O)N2CCN(c3c(F)cncc3NC(=O)c3c(N)nn4cc(F)cnc34)CC2)C1 [I-N-194] | +++ (Compounds with a Cisplatin sensitization value of <0.02 μM are marked with “+++.”)
CC(=O)N1CCCC12CCN(c1ccncc1NC(=O)c1c(N)nn3cc(F)cnc13)CC2 [I-N-262, N-(4-(1-acetyl-1,8-diazaspiro[4.5]decan-8-yl)pyridin-3-yl)-2-amino-6-fluoropyrazolo[1,5-a]pyrimidine-3-carboxamide] | +++ (Compounds with a Cisplatin sensitization value of <0.02 μM are marked with “+++.”)
CN1CCC(Oc2ccncc2NC(=O)c2c(N)nn3cc(CC#N)cnc23)CC1 [I-O-23, 2-amino-6-(cyanomethyl)-N-(4-((1-methylpiperidin-4-yl)oxy)pyridin-3-yl)pyrazolo[1,5-a]pyrimidine-3-carboxamide] | +++ (Compounds with a Cisplatin sensitization value of <0.02 μM are marked with “+++.”)
Nc1nn2cc(F)cnc2c1C(=O)Nc1cnccc1-n1ccnc1C1CC1 [I-N-202, 2-amino-N-(4-(2-cyclopropyl-1H-imidazol-1-yl)pyridin-3-yl)-6-fluoropyrazolo[1,5-a]pyrimidine-3-carboxamide] | +++ (Compounds with a Cisplatin sensitization value of <0.02 μM are marked with “+++.”)
N#CCc1cnc2c(C(=O)Nc3cnccc3OC3CCNCC3)c(N)nn2c1 [I-O-84, 2-amino-6-(cyanomethyl)-N-(4-(piperidin-4-yloxy)pyridin-3-yl)pyrazolo[1,5-a]pyrimidine-3-carboxamide] | ++ (Compounds with a Cisplatin sensitization value >0.02 μM but <0.2 μM are marked with “++.”)
Nc1nn2cc(F)cnc2c1C(=O)Nc1cncc(F)c1N1CCC(C(=O)N2CCN3CCC2CC3)CC1 [I-G-7, N-(4-(4-(1,4-diazabicyclo[3.2.2]nonane-4-carbonyl)piperidin-1-yl)-5-fluoropyridin-3-yl)-2-amino-6-fluoropyrazolo[1,5-a]pyrimidine-3-carboxamide] | +++ (Compounds with a Cisplatin sensitization value of <0.02 μM are marked with “+++.”)
Nc1nn2cc(Cl)cnc2c1C(=O)Nc1cnccc1OC1CCOCC1 [I-O-61, 2-amino-6-chloro-N-(4-((tetrahydro-2H-pyran-4-yl)oxy)pyridin-3-yl)pyrazolo[1,5-a]pyrimidine-3-carboxamide] | +++ (Compounds with a Cisplatin sensitization value of <0.02 μM are marked with “+++.”)
C[C@@H]1CN(C2COC2)CCN1c1ccncc1NC(=O)c1c(N)nn2cc(F)cnc12 [I-N-23, (R)-2-amino-6-fluoro-N-(4-(2-methyl-4-(oxetan-3-yl)piperazin-1-yl)pyridin-3-yl)pyrazolo[1,5-a]pyrimidine-3-carboxamide] | +++ (Compounds with a Cisplatin sensitization value of <0.02 μM are marked with “+++.”)
COC1CN(C(=O)C2CCN(c3ccncc3NC(=O)c3c(N)nn4cc(F)cnc34)CC2)C1 [I-G-78, 2-amino-6-fluoro-N-(4-(4-(3-methoxyazetidine-1-carbonyl)piperidin-1-yl)pyridin-3-yl)pyrazolo[1,5-a]pyrimidine-3-carboxamide] | +++ (Compounds with a Cisplatin sensitization value of <0.02 μM are marked with “+++.”)
CNC1CCN(c2ccncc2NC(=O)c2c(N)nn3cc(Cl)cnc23)CC1 [I-N-87, 2-amino-6-chloro-N-(4-(4-(methylamino)piperidin-1-yl)pyridin-3-yl)pyrazolo[1,5-a]pyrimidine-3-carboxamide] | ++ (Compounds with a Cisplatin sensitization value >0.02 μM but <0.2 μM are marked with “++.”)
CN1CCN(CC2CCN(c3c(F)cncc3NC(=O)c3c(N)nn4cc(F)cnc34)CC2)CC1=O [I-N-171, 2-amino-6-fluoro-N-(5-fluoro-4-(4-((4-methyl-3-oxopiperazin-1-yl)methyl)piperidin-1-yl)pyridin-3-yl)pyrazolo[1,5-a]pyrimidine-3-carboxamide] | +++ (Compounds with a Cisplatin sensitization value of <0.02 μM are marked with “+++.”)
N#C[C@@H]1CCN(c2c(Cl)cncc2NC(=O)c2c(N)nn3cc(F)cnc23)C1 [I-N-285, (R)-2-amino-N-(5-chloro-4-(3-cyanopyrrolidin-1-yl)pyridin-3-yl)-6-fluoropyrazolo[1,5-a]pyrimidine-3-carboxamide] | ++ (Compounds with a Cisplatin sensitization value >0.02 μM but <0.2 μM are marked with “++.”)
CN1CCN(c2c(Cl)cncc2NC(=O)c2c(N)nn3cc(F)cnc23)CC1 [I-N-85, 2-amino-N-(5-chloro-4-(4-methylpiperazin-1-yl)pyridin-3-yl)-6-fluoropyrazolo[1,5-a]pyrimidine-3-carboxamide] | ++ (Compounds with a Cisplatin sensitization value >0.02 μM but <0.2 μM are marked with “++.”)
Cn1ccc2c(NC(=O)c3c(N)nn4cc(F)cnc34)cncc21 [I-C-74, 2-amino-6-fluoro-N-(1-methyl-1H-pyrrolo[2,3-c]pyridin-4-yl)pyrazolo[1,5-a]pyrimidine-3-carboxamide] | + (Compounds with a Cisplatin sensitization value >0.2 μM but <5 μM are marked with “+.”)
COCC1CCN(c2ccncc2NC(=O)c2c(N)nn3cc(F)cnc23)CC1 [I-N-282, 2-amino-6-fluoro-N-(4-(4-(methoxymethyl)piperidin-1-yl)pyridin-3-yl)pyrazolo[1,5-a]pyrimidine-3-carboxamide] | +++ (Compounds with a Cisplatin sensitization value of <0.02 μM are marked with “+++.”)
